Results published in US8389523B2, “Substituted quinoxaline and an agrochemical composition thereof” (Kumiai Chemical Industry Co., Ltd., priority 2007, dated 2013).

What was measured:
Type in all cases: in vivo
Set-up in all cases: scale not given here
[1] = tested on: Abutilon theophrasti medicus; test: Herbicidal effects in upland field foliar treatment (Test Example 3); conditions: criteria of Table 138; for herbicidal effects on Abutilon theophrasti medicus: 1000 g of the active ingredient per hectare, 14th day after the treatment, wettable powder; for herbicidal effect (index) on Abutilon theophrasti medicus: 1000 g active ingredient per hectare, 14th day after treatment
Method in brief: (§1)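 Herbicidal activity is rated visually on a fixed scale 14 days after foliar application. Plants raised from seed in upland field soil for two weeks under glass receive a water dilution of a wettable powder at 1000 g a.i. per hectare in 1000 L/ha.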

[2] = tested on: Echinochloa crus-galli (L.) P. Beauv. var. crus-galli; test: as above; conditions: criteria of Table 138; for herbicidal effects on Echinochloa crus-galli (L.) P. Beauv. var. crus-galli: 1000 g of the active ingredient per hectare, 14th day after the treatment, wettable powder; for herbicidal effect (index) on Echinochloa crus-galli (L.) P. Beauv. var. crus-galli: 1000 g active ingredient per hectare, 14th day after treatment
Method in brief: as §1

Amaranthus viridis L. [3] = test: as above; conditions: criteria of Table 138; for herbicidal effects on Amaranthus viridis L.: 1000 g of the active ingredient per hectare, 14th day after the treatment, wettable powder; for herbicidal effect (index) on Amaranthus viridis L.: 1000 g active ingredient per hectare, 14th day after treatment
Method in brief: as §1

[4] = tested on: Abutilon theophrasti medicus; test: Herbicidal effects in upland field soil treatment (Test Example 2); conditions: 1000 g active ingredient per hectare, 21st day after treatment, criteria of Table 138
Method in brief: (§2)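 Herbicidal effect was rated visually against set criteria on the 21st day after a pre-emergence soil-surface spray of diluted wettable powder delivering 1000 g active ingredient per hectare (1000 L/ha). Seeds had been sown and covered in upland field soil; plants grew in a greenhouse.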

Amaranthus viridis L. [5] = test: as above; conditions: 1000 g active ingredient per hectare, 21st day after treatment, criteria of Table 138
Method in brief: as §2

[6] = tested on: Echinochloa oryzicola Vasing; test: Herbicidal effects in paddy field soil treatment (Test Example 1); conditions: for herbicidal effect (index) on Echinochloa oryzicola Vasing: paddy field soil treatment (Test Example 1), criteria of Table 138; for Herbicidal effects index, Echinochloa oryzicola Vasing: paddy field soil treatment, 1000 g of the active ingredient per hectare, wettable powder added dropwise on water surface, 21st day after treatment
Method in brief: (§3)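 Scoring of herbicidal effect took place 21 days after treatment, using a rating scale, on plants grown in a greenhouse. The test compound, formulated as a wettable powder and diluted with water, had been applied dropwise to the flood water at 1000 g active ingredient per hectare, one day after sowing into puddled paddy soil held under 3 cm of water.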

[7] = tested on: Scirpus juncoides Roxb. var. ohwianus. T. Koyama; test: as above; conditions: for herbicidal effect (index) on Scirpus juncoides Roxb. var. ohwianus. T. Koyama: paddy field soil treatment (Test Example 1), criteria of Table 138; for Herbicidal effects index, Scirpus juncoides Roxb. var. ohwianus. T. Koyama: paddy field soil treatment, 1000 g of the active ingredient per hectare, wettable powder added dropwise on water surface, 21st day after treatment
Method in brief: as §3

[8] = tested on: Monochoria vaginalis (Burm. f.) Presl var. plantaginea (Roxb.) Solms-Laub.; test: as above; conditions: for herbicidal effect (index) on Monochoria vaginalis (Burm. f.) Presl var. plantaginea (Roxb.) Solms-Laub.: paddy field soil treatment (Test Example 1), criteria of Table 138; for Herbicidal effects index, Monochoria vaginalis (Burm. f.) Presl var. plantaginea (Roxb.) Solms-Laub.: paddy field soil treatment, 1000 g of the active ingredient per hectare, wettable powder added dropwise on water surface, 21st day after treatment
Method in brief: as §3

SMILES	herbicidal effects on Abutilon theophrasti medicus [1]	herbicidal effects on Echinochloa crus-galli (L.) P. Beauv. var. crus-galli [2]	herbicidal effects on Amaranthus viridis L. (Amaranthus viridis L. [3])	herbicidal effect (index) on Abutilon theophrasti medicus [4]	herbicidal effect (index) on Amaranthus viridis L. (Amaranthus viridis L. [5])	herbicidal effect (index) on Echinochloa oryzicola Vasing [6]	herbicidal effect (index) on Scirpus juncoides Roxb. var. ohwianus. T. Koyama [7]	herbicidal effect (index) on Monochoria vaginalis (Burm. f.) Presl var. plantaginea (Roxb.) Solms-Laub. [8]	Herbicidal effects index, Echinochloa oryzicola Vasing [6]	Herbicidal effects index, Scirpus juncoides Roxb. var. ohwianus. T. Koyama [7]	Herbicidal effects index, Monochoria vaginalis (Burm. f.) Presl var. plantaginea (Roxb.) Solms-Laub. [8]	herbicidal effect (index) on Abutilon theophrasti medicus [1]	herbicidal effect (index) on Echinochloa crus-galli (L.) P. Beauv. var. crus-galli [2]	herbicidal effect (index) on Amaranthus viridis L. (Amaranthus viridis L. [3])
O=C1CCCC(O)=C1C(=O)c1cnccn1 [comparative compound A, reference compound]	2	0	1	1	0	2	0	0	–	–	–	–	–	–
O=C1CCCC(O)=C1C(=O)c1nc2c(F)cccc2n(-c2ccccc2)c1=O [II-233]	5	5	5	5	5	–	–	–	5	5	5	–	–	–
O=C1CCCC(O)=C1C(=O)c1nc2ccccc2n(-c2cnccn2)c1=O [I-199]	–	–	–	5	5	–	–	–	5	5	5	5	5	5
O=C1CCCC(O)=C1C(=O)c1nc2cccnc2n(-c2ccc(F)cc2)c1=O [IV-8]	5	5	5	5	5	–	–	–	5	5	5	–	–	–
O=C1CCCC(O)=C1C(=O)c1nc2cccnc2n(-c2cccc(F)c2)c1=O [IV-7]	5	5	5	5	5	–	–	–	5	5	5	–	–	–
CC1(C)CCC(=O)C(C(=O)c2nc3cccnc3n(-c3ccccc3)c2=O)=C1O [IV-2]	5	5	5	5	5	–	–	–	5	5	5	–	–	–
O=C1CCCC(O)=C1C(=O)c1nc2ccccc2n(C2=NOCC2)c1=O [I-131]	–	–	–	5	5	–	–	–	5	5	5	5	5	5
O=C1CCCC(O)=C1C(=O)c1nc2cccnc2n(Cc2ccccc2C(F)(F)F)c1=O [III-117]	5	5	5	5	5	–	–	–	5	5	5	–	–	–
COCCn1c(=O)c(C(=O)C2=C(O)CCCC2=O)nc2ccccc21 [Compound I-88]	–	–	–	5	5	–	–	–	5	5	5	5	5	5
Cc1nnc(-n2c(=O)c(C(=O)C3=C(O)CCCC3=O)nc3ccccc32)s1 [I-270]	–	–	–	5	5	–	–	–	5	5	5	5	5	5
CCS(=O)(=O)Cn1c(=O)c(C(=O)C2=C(O)CCCC2=O)nc2ccccc21 [Compound I-82]	–	–	–	5	5	–	–	–	5	5	5	5	4	5
COc1ccc(-n2c(=O)c(C(=O)C3=C(O)CCCC3=O)nc3cccnc32)cc1 [IV-62, 2-(2-hydroxy-6-oxo-1-cyclohexenecarbonyl)-4-(4-methoxyphenyl)-pyrido[2,3-b]pyrazin-3(4H)-one]	5	5	5	5	5	5	5	5	–	–	–	–	–	–
O=C1CCCC(O)=C1C(=O)c1nc2cc(F)ccc2n(-c2ccc3c(c2)OCO3)c1=O [II-239]	5	4	5	5	5	–	–	–	5	5	5	–	–	–
CC(c1ccccc1)n1c(=O)c(C(=O)C2=C(O)CCCC2=O)nc2cccnc21 (stereo not shown) [III-130]	5	5	5	5	5	–	–	–	5	5	5	–	–	–
